“Also recorded” adds a separate entry of the source.

Data set [1] deals with human recombinant AChE (Homo sapiens, UniProt P22303). The data set is described as follows: Action mechanism and inhibition constant Ki (Lineweaver-Burk method). The class given is biochemical.
Text: Determination of the action mechanism and of the inhibition constant (Ki). […] To obtain an estimate of the competitive inhibition constant Ki, the Lineweaver-Burk method was used. […] The data obtained were plotted on a graph according to the Lineweaver-Burk method, that is indicating the reciprocal of the enzymatic velocity (1/v) as a function of the reciprocal of the substrate concentration (1/[ACTh)].
Data set [2] concerns the target T1, AChE-induced Aβ40 aggregation (Homo sapiens, UniProt P22303). As to the kind of experiment: biochemical.
Data set [3] has as its system SH-SY5Y cells. The data set is described as follows: Toxic effects, colorimetric MTT assay. The class given is cell-based. Particulars: 24 hours, 0.1-50 μM. The procedure: The results are expressed as a percentage of cells with respect to the control.
The cellular viability was expressed as a percentage of control cells and calculated by the formula Ft/Fnt×100, where Ft=absorbance of treated neurones and Fnt=absorbance of non treated neurones.
The SH-SY5Y cells were routinely grown at 37° C. in a humidified incubator with 5% CO2 in Dulbecco's modified Eagle's medium supplemented with 10% foetal calf serum (FCS), glutamine 2 mM, penicillin […] and streptomycin 50 μg/mL.
In general terms: Formazan colour is commonly taken as a measure of viable cells.

Data set [4] has as its system SH-SY5Y cells. The data set is described as follows: Intracellular antioxidant activity: ROS formation evoked by t-BuOOH (DCFH-DA probe). Particulars: for % intracellular ROS: percentage increase of ROS by t-BuOOH, mean±SD of three tests. The class given is cell-based, human. The procedure: Significant inhibiting effects were obtained with concentrations of 7 or 5 μM (p<0.01), 10 μM and 50 μM (for both p<0.001).
The results are expressed as the percentage increase of intracellular ROS determined by the treatment with tert-butyl hydroperoxide. Data are reported as the mean±SD (standard deviation) of three tests independent of one another (treated against not treated; *p<0.01, **p<0.001). ^btox=cytotoxicity.

In data set [5] the target is T1, AChE-induced Aβ40 aggregation.
The target in data set [6] is T2, BACE1 (β-secretase) (Homo sapiens, UniProt P56817).
T2 construct: host or cells: Baculovirus expression system
As to the kind of experiment: biochemical. To be noted: substrate 250 nM, enzyme 1 U/mL, 60 minutes, 37° C.; read-out: IC50 (nM) on BACE.
Experimental: Assay for the analysis of BACE activity
BACE1 (β-secretase) purified and expressed in Baculovirus in 50 mM Tris HCl (pH=7.5), 10% glycerol (5 Units)
Assay buffer: 50 mM Sodium Acetate, pH=4.5
20 μL of substrate were added to 20 μL of the compound to be tested (or to the buffer if preparing the control well)
To start the reaction, 20 μL of BACE1 enzyme were added to the well.
The mixture was incubated at 37° C. for 60 minutes.
20 μL of the solution were added to stop the reaction. Then the fluorescence signal was read.
BACE activity was measured with a fluorimetric analysis method using a multi-well spectrofluorimeter. The peptide substrate of the analysis mimes the APP protein which is the natural substrate of BACE.
The inhibition curves were obtained for each compound by plotting on a graph the inhibition percentages obtained with respect to the logarithm of the inhibitor concentration. The linear regression parameters were determined and, when possible, the value of IC50 was extrapolated (GraphPad Prism 3.0 GraphPad Software Inc.).
The value of IC50 was calculated using GraphPad Prism software.

The target in data set [7] is butyrylcholinesterase (BChE) from human serum (Homo sapiens, UniProt P06276). As to the kind of experiment: biochemical. The class given is biochemical. To be noted: BChE from human serum; mean of two independent measurements, each in duplicate; read-out: IC50 BChE.
Data set [8] concerns the target human recombinant acetylcholinesterase (AChE or HuAChE) (Homo sapiens, UniProt P22303). As to the kind of experiment: biochemical. The class given is biochemical.
For data set [9], the system named is anti-NGF mice (AD11). The data set is described as follows: Cholinergic deficit of anti-NGF mice: ChAT immunohistochemistry, cholinergic neurones in the basal forebrain. To be noted: i.p., 15 days, doses of Table 6.
Experimental: Immunohistochemistry was carried out to show the number of cholinergic neurones in the basal forebrain. For this purpose, sections were incubated with the monoclonal antibody anticholine acetyltransferase (1:500, Chemicon International Inc., Temecula, Calif.).

T1 sequence (P22303 32-614): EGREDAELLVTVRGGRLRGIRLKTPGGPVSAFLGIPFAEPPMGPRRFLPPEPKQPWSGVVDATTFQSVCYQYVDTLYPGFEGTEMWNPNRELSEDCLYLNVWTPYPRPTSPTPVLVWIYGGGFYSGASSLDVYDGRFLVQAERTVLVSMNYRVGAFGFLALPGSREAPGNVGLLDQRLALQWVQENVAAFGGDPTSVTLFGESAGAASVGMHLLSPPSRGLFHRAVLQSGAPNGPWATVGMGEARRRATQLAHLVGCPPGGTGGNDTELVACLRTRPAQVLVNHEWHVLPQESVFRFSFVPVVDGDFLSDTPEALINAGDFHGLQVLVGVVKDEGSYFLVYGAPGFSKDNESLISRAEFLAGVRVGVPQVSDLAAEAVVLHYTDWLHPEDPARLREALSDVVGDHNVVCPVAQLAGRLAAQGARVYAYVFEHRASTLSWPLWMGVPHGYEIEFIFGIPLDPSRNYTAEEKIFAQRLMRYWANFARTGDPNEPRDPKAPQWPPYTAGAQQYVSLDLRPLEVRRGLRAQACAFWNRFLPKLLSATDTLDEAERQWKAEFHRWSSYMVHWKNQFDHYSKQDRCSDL
Chain of human recombinant AChE (P22303 32-614): as above
Chain of human recombinant acetylcholinesterase (AChE or HuAChE) (P22303 32-614): as above
Chain of butyrylcholinesterase (BChE) from human serum (P06276 29-602): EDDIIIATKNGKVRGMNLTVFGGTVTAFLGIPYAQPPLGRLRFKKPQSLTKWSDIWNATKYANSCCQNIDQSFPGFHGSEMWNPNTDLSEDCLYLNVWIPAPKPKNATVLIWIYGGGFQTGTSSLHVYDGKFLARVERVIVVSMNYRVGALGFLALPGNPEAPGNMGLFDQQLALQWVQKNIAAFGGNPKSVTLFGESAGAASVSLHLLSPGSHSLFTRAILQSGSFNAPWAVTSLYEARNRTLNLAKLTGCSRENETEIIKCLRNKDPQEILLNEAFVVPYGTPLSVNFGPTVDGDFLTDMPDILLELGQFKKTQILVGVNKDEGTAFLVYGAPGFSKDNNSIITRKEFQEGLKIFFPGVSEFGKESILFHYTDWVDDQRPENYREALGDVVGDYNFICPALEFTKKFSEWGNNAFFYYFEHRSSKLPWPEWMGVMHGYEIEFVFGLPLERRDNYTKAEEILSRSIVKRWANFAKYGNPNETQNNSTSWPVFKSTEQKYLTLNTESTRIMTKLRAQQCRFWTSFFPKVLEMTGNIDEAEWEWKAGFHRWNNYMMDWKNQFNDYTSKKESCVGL
T2 sequence (P56817 46-501): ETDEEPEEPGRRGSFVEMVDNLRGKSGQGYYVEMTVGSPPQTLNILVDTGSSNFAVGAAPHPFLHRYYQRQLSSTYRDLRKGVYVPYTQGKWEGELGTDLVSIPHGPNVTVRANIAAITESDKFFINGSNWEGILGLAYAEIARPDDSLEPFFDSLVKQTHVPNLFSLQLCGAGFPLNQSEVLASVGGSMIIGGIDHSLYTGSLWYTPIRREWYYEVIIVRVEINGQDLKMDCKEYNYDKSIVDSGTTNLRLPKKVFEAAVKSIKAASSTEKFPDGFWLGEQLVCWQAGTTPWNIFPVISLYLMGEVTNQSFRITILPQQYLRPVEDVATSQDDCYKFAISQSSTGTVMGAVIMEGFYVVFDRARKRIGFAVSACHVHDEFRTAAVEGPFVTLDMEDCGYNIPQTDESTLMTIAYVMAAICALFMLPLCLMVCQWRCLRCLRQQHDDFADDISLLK

Consider `O=C(CCCCC1CCSS1)NCCCNc1c2c(nc3cc(Cl)ccc13)CCCC2` (racemic) [Compound 7, 5-[1,2]dithiolan-3-yl-pentanoic acid [3-(6-chloro-1,2,3,4-tetrahydro-acridin-9-ylamino)-propyl]-amide], for which, in data set [1], the Ki (as a rule, the equilibrium dissociation constant of an inhibitor or competing ligand from its target) turned out to be 0.000155 ± 4.6e-05 µM. In addition, in data set [1], the “type of inhibition (Lineweaver-Burk)” value is “mixed type of competitive inhibition”. Besides, the IC50 (commonly the concentration needed to halve the response being measured) in data set [2] is 45 ± 14.6 µM; in data set [6], 69.7 nM; in data set [7], 0.0108 µM; in [8] it was 0.000253 µM. Besides, the inhibition (commonly the change of the read-out against control, counted positive when it falls) at 100 µM in data set [2] (read-out: % of inhibition ± SEM of AChE-induced Aβ40 aggregation) was found to be 61.8 ± 0.8%. Further, the “effect on cellular viability (MTT)” value in [3] is given as “did not lead to variations in cellular viability; also recorded: do not influence cellular vitality”. Besides, the “% intracellular ROS” value in data set [4] (0.1 μM) is recorded as 99.50 ± 3.54%; in [4] (0.5 μM), 99.67 ± 7.02%; in [4] (1 μM) it was 96.67 ± 8.02%; in data set [4] (5 μM), 82.50 ± 7.78%; in data set [4] (10 μM), “tox^b”; in data set [4] (50 μM), “tox^b”. The “effect on ROS formation, in words” value in data set [4] (0.1-50 μM for LA and 7, 0.1-5 μM for 15) is “inhibiting effect in ROS formation which depended strongly on the concentration”. In addition, the “inhibition of ROS formation” value in [4] (SH-SY5Y, t-BuOOH) was found to be 64%. The “power versus other classic AChE inhibitors approved for AD (AChE-induced Aβ40 aggregation)” value in [5] is listed as “significantly more powerful than other classic AChE inhibitors”. Moreover, in data set [5], the “times less powerful than propidium (AChE-induced Aβ40 aggregation)” value is listed as 3. Moreover, in data set [9], the “recovery of the cholinergic deficit (number of cholinergic neurones in the basal forebrain)” value is “did not allow the complete recovery of the cholinergic deficit”.

The record behind these values is patent US7307083B2, “Tetrahydro-acridine and dithiolane derivatives” (priority 2005, dated 2007).
